pIC50: −log10 of the molar value. Read-outs that look alike come from different tables or passages of the source.
Biological target: T1, CCR2 (Homo sapiens, UniProt P41597)
T1 construct: expressed in transfected cells
Experiment: compound-induced calcium activity on the FLIPR Tetra in HEK-Gqi5 cells stably expressing CCR2
Assay type: cell-based
Protocol: HEK-Gqi5 cells stably expressing CCR2 were cultured in DMEM high glucose, 10% FBS, 1% PSA, 400 μg/ml geneticin and 50 μg/ml hygromycin. Appropriate positive control chemokines (MCP-1, MIP1A or RANTES) was used as the positive control agonist for screening compound-induced calcium activity assayed on the FLIPR^Tetra. The drug plates were prepared in 384-well microplates using the EP3 and the MultiPROBE robotic liquid handling systems. Compounds were synthesized and tested for CCR2 activity.

[1] = HEK-Gqi5 cells stably expressing CCR2, calcium activity, FLIPR Tetra
[2] = HEK-Gqi5 cells stably expressing CCR2, calcium activity, FLIPR Tetra, read-out: CCR2 IC50

T1 sequence (P41597 whole entry, species assumed): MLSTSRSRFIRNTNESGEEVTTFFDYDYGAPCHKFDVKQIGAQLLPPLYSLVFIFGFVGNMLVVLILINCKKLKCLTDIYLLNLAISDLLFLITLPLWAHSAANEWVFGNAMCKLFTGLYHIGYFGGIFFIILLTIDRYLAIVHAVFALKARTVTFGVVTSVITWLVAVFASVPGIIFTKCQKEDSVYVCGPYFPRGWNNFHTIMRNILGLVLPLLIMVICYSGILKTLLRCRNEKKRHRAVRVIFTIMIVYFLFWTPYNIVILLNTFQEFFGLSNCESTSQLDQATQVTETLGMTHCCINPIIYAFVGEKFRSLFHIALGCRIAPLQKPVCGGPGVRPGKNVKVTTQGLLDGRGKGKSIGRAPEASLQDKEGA

Row | Structure (SMILES) | CCR2 ANTAGONISM (%) [1] [%] | pIC50 [2] | pIC50
1 | O=S(=O)(Nc1cc(Cl)ccc1C#Cc1ccccc1)c1cc2ccccc2o1 [Compound 21, N-[5-Chloro-2-(phenylethynyl)phenyl]-1-benzofuran-2-sulfonamide] | 30 |  | 
2 | Cc1ccc(Sc2ccccc2)c(NS(=O)(=O)c2cc3ccccc3o2)c1 [Compound 24, N-[5-Methyl-2-(phenylsulfanyl)phenyl]-1-benzofuran-2-sulfonamide] | 41 |  | 
3 | Cc1ccc([S+]([O-])c2ccccc2)c(NS(=O)(=O)c2cc3ccccc3o2)c1 (stereo not drawn) [Compound 25, N-[5-Methyl-2-(phenylsulfinyl)phenyl]-1-benzofuran-2-sulfonamide] | 92 | 5.54 | 
4 | O=C(Cc1ccccc1)c1ccc(Cl)cc1NS(=O)(=O)c1cc2ccccc2o1 [Compound 17, N-[5-Chloro-2-(phenylacetyl)phenyl]-1-benzofuran-2-sulfonamide] | 79 | 6.74 | 
5 | O=C(O)c1ccccc1Oc1ccc(Cl)cc1NS(=O)(=O)c1cc2ccccc2o1 [Compound 11, 2-{2-[(1-Benzofuran-2-ylsulfonyl)amino]-4-chlorophenoxy}benzoic acid] | 97 | 7.22 | 
6 | O=C(Nc1ccccc1)c1ccc(Cl)cc1NS(=O)(=O)c1cc2ccccc2o1 [Compound 15, 2-[(1-Benzofuran-2-ylsulfonyl)amino]-4-chloro-N-phenylbenzamide] | 95 | 6.48 | 
7 | O=S(=O)(Nc1cc(F)ccc1[S+]([O-])c1ccccc1)c1cc2ccccc2o1 (stereo not drawn) [Compound 28, N-[5-Fluoro-2-(phenylsulfinyl)phenyl]-1-benzofuran-2-sulfonamide] | 91 | 6.50 | 
8 | O=S(=O)(Nc1cc(F)ccc1S(=O)(=O)c1ccccc1)c1cc2ccccc2o1 [Compound 29, N-[5-Fluoro-2-(phenylsulfonyl)phenyl]-1-benzofuran-2-sulfonamide] | 82 | 5.58 | 
9 | O=C(O)c1ccccc1COc1ccc(Cl)cc1NS(=O)(=O)c1cc2ccccc2o1 [Compound 31, 2-({2-[(1-Benzofuran-2-ylsulfonyl)amino]-4-chlorophenoxy}methyl)benzoic Acid] | 99 | 7.57 | 
10 | N#Cc1ccc(Cl)cc1NS(=O)(=O)c1cc2ccccc2o1 [Compound 16, N-(5-Chloro-2-cyanophenyl)-1-benzofuran-2-sulfonamide] | 102 | 6.39 | 
11 | O=S(=O)(Nc1cc(Cl)ccc1/C(Cc1ccccc1)=N\O)c1cc2ccccc2o1 [Compound 19, N-{5-Chloro-2-[(1Z)—N-hydroxy-2-phenylethanimidoyl]phenyl}-1-benzofuran-2-sulfonamide] | 72 |  | 
12 | Cc1ccc(S(=O)(=O)c2ccccc2)c(NS(=O)(=O)c2cc3ccccc3o2)c1 [Compound 26, N-[5-Methyl-2-(phenylsulfonyl)phenyl]-1-benzofuran-2-sulfonamide] | 38 |  | 
13 | O=S(=O)(Nc1cc(Cl)ccc1CCc1ccccc1)c1cc2ccccc2o1 [Compound 22, N-[5-Chloro-2-(2-phenylethyl)phenyl]-1-benzofuran-2-sulfonamide] | 84 |  | 
14 | Cc1ccc(Cl)cc1NS(=O)(=O)c1cc2ccccc2o1 [Compound 2, N-(5-Chloro-2-methylphenyl)-1-benzofuran-2-sulfonamide] | 84 | 6.44 | 
15 | C#Cc1ccc(Cl)cc1NS(=O)(=O)c1cc2ccccc2o1 [Compound 6, N-(5-Chloro-2-ethynylphenyl)-1-benzofuran-2-sulfonamide] | 93 | 6.93 | 
16 | O=C(c1ccc(Cl)cc1NS(=O)(=O)c1cc2ccccc2o1)N1CCOCC1 [Compound 8, N-[5-Chloro-2-(morpholin-4-ylcarbonyl)phenyl]-1-benzofuran-2-sulfonamide] | 84 | 6.24 | 
17 | COC(=O)c1ccccc1Oc1ccc(Cl)cc1NS(=O)(=O)c1cc2ccccc2o1 [Compound 10, Methyl 2-{2-[(1-benzofuran-2-ylsulfonyl)amino]-4-chlorophenoxy}benzoate] | 98 | 5.99 | 
18 | O=S(=O)(Nc1cc(Cl)ccc1[S+]([O-])c1ccccc1)c1cc2ccccc2o1 (stereo not drawn) [Compound 14, N-[5-Chloro-2-(phenylsulfinyl)phenyl]-1-benzofuran-2-sulfonamide] | 105 | 8.22 | 
19 | O=C1CCN(C(=O)c2ccc(Cl)cc2NS(=O)(=O)c2cc3ccccc3o2)CC1 [Compound 7, N-{5-Chloro-2-[(4-oxopiperidin-1-yl)carbonyl]phenyl}-1-benzofuran-2-sulfonamide] | 93 |  | 6.96
20 | O=S(=O)(Nc1cc(Cl)ccc1Sc1ccccc1)c1cc2ccccc2o1 [Compound 12, N-[5-Chloro-2-(phenylsulfanyl)phenyl]-1-benzofuran-2-sulfonamide] | 90 | 6.91 | 
21 | O=S(=O)(Nc1cc(Cl)ccc1OC(F)(F)F)c1cc2ccccc2o1 [Compound 3, N-[5-Chloro-2-(trifluoromethoxy)phenyl]-1-benzofuran-2-sulfonamide] | 95 | 6.71 | 
22 | O=S(=O)(Nc1cc(F)ccc1Sc1ccccc1)c1cc2ccccc2o1 [Compound 27, N-[5-Fluoro-2-(phenylsulfanyl)phenyl]-1-benzofuran-2-sulfonamide] | 74 |  | 
23 | CCOc1ccc(Cl)cc1NS(=O)(=O)c1cc2ccccc2o1 [Compound 5, N-(5-Chloro-2-ethoxyphenyl)-1-benzofuran-2-sulfonamide] | 73 | 5.78 | 
24 | Cc1ncccc1Oc1ccc(Cl)cc1NS(=O)(=O)c1cc2ccccc2o1 [Compound 9, N-{5-Chloro-2-[(2-methylpyridin-3-yl)oxy]phenyl}-1-benzofuran-2-sulfonamide] | 96 | 6.44 | 
25 | COc1ccc(Cl)cc1NS(=O)(=O)c1cc2ccccc2o1 [Compound 1, N-(5-Chloro-2-methoxyphenyl)benzofuran-2-sulfonamide] | 97 | 6.29 | 
26 | O=S(=O)(Nc1cc(Cl)ccc1OCc1ccccc1)c1cc2ccccc2o1 [Compound 20, N-[2-(Benzyloxy)-5-chlorophenyl]-1-benzofuran-2-sulfonamide] | 87 | 5.79 | 
27 | CO/N=C(/Cc1ccccc1)c1ccc(Cl)cc1NS(=O)(=O)c1cc2ccccc2o1 [Compound 18, N-{5-Chloro-2-[(1Z)—N-methoxy-2-phenylethanimidoyl]phenyl}-1-benzofuran-2-sulfonamide] | 76 |  | 
28 | O=S(=O)(Nc1cc(Cl)ccc1S(=O)(=O)c1ccccc1)c1cc2ccccc2o1 [Compound 13, N-[5-Chloro-2-(phenylsulfonyl)phenyl]-1-benzofuran-2-sulfonamide] | 78 | 5.71 | 
29 | COC(=O)c1ccc(Cl)cc1NS(=O)(=O)c1cc2ccccc2o1 [Compound 4, Methyl 2-[(1-benzofuran-2-ylsulfonyl)amino]-4-chlorobenzoate] | 95 | 5.86 | 

— patent US8927544B2, “Benzofuran-2-sulfonamides derivatives as chemokine receptor modulators” (Allergan, Inc., priority 2012, dated 2015)
